Consider one compound from publication PMC10175561, “Two single-point mutations in Ankyrin Repeat one drastically change the threshold temperature of TRPV1” (Nature Communications, 2023).

Each structure is given as a SMILES string.

This assay deals with T1, axTRPV1 (Ambystoma mexicanum, UniProt A0A5K7X138).
T1 construct: gene TRPV1; full-length cDNA in pGEMHE, expressed in Xenopus oocytes; cloned in the authors' earlier work
T1 sequence (A0A5K7X138 1-858): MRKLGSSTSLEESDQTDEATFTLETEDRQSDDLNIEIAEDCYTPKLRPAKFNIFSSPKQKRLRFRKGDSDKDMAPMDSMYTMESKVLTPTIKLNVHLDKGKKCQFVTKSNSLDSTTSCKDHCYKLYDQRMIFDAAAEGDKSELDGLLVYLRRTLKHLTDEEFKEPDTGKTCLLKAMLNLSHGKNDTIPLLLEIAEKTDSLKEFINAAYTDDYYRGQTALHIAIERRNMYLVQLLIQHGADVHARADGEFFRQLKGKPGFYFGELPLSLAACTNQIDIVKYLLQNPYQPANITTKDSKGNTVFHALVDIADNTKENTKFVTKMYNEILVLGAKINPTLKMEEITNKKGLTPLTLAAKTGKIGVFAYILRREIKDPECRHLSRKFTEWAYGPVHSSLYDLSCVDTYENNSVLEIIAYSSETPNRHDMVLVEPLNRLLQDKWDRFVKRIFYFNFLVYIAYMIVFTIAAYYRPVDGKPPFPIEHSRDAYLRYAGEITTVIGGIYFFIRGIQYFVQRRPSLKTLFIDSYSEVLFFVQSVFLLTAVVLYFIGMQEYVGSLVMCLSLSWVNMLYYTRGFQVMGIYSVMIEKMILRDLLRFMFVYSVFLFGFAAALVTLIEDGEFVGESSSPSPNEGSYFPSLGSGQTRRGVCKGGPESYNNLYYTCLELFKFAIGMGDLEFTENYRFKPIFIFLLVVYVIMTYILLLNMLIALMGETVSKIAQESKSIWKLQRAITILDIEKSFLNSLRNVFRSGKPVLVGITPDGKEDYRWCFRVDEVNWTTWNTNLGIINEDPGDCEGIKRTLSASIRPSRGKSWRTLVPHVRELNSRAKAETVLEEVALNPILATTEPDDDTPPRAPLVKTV
In words: two-electrode voltage clamp, Xenopus oocytes. In kind it is cell-based. The note with it: agonist, dose-dependent activation; current at -80 mV; bath pH 7.4. For orientation: Two-electrode voltage clamp holds a large cell at a set potential and records current.

For `COc1cc(CNC(=O)CCCC/C=C/C(C)C)ccc1O` [capsaicin], the “two-electrode voltage clamp, Xenopus oocytes” value is “Capsaicin and acid activated all TRPV1s in a dose-dependent manner”.
